From patent publication US4413009A, “N-((Alkylamino)carbonyl)-N-(((alkylamino)carbonyl)oxy)acylamides with antineoplastic activity” (priority 1982, dated 1983)

tested on: HeLa cells; test: HeLa cell colony cytotoxicity / growth inhibition test; format: cell-based, human; conditions: 8 days, 0-50 μg/ml
Experimental: HeLa cells were seeded in 24-well tissue culture plates at a concentration of 30 cells per well in 1 ml of growth medium (Eagle's minimum essential medium with 5 percent HIFCS). The plates were incubated at 36° C. for 24 hours after which the growth medium was removed. The cells were resuspended in 1 ml of fresh growth medium described above together with a measured quantity of (0-50 μg/ml) of one of the compounds of this invention. The 0 μg/ml concentration served as a control. The tissue culture plates were then incubated at 36° C. for 8 days at which time the medium was removed and the cells were fixed and stained with 0.1% crystal violet in 20% ethanol. The HeLa cell colonies were counted macroscopically, and comparisons of colony size in treated and control wells were made. Test compounds were considered cytotoxic at concentrations which reduced the number of HeLa cell colonies compared to control by 50% or more. Test compounds of the invention were considered to cause HeLa cell growth inhibition at concentrations which reduced the size of colonies by a measurable amount when compared to control.

SMILES	Cell Growth Inhibition: concentration at which the size of the HeLa colonies were reduced by a measurable amount (as compared to control)
CCNC(=O)ON(C(C)=O)C(=O)NCC [Example 2, N-((Ethylamino)carbonyl)-N-(((ethylamino)-carbonyl)oxy)acetamide]	12.5 µg/mL
CC(=O)N(OC(=O)NC(C)(C)C)C(=O)NC(C)(C)C [Example 3, N-(((1,1-dimethylethyl)amino)carbonyl)-N-((((1,1-dimethylethyl)amino)carbonyl)oxy)acetamide]	12.5 µg/mL
CCC(=O)N(OC(=O)NC)C(=O)NC [Example 4, N-((methylamino)carbonyl)-N-(((methyl-amino)carbonyl)oxy)propionamide]	12.5 µg/mL
CCNC(=O)ON(C(=O)CC)C(=O)NCC [Example 5, N-((ethylamino)carbonyl)-N-(((ethylamino)-carbonyl)oxy)propionamide]	50 µg/mL
CNC(=O)ON(C(=O)NC)C(=O)C(C)(C)C [Example 6, N-((Methylamino)carbonyl)-N-(((methylamino)-carbonyl)oxy)(2,2-dimethyl)propionamide]	12.5 µg/mL
CC(=O)N(OC(=O)NC1CCCCC1)C(=O)NC1CCCCC1 [Example 7, N-((Cyclohexylamino)carbonyl)-N-(((cyclohexylamino)carbonyl)oxy)acetamide]	1.6 µg/mL
CC(=O)N(OC(=O)NC(C)C)C(=O)NC(C)C [Example 8, N-(((1-Methylethyl)amino)carbonyl)-N-((((1-methylethyl)amino)carbonyl)oxy)acetamide]	1.6 µg/mL
CCCNC(=O)ON(C(C)=O)C(=O)NCCC [Example 9, N-((Propylamino)carbonyl)-N-(((propylamino)carbonyl)oxy)acetamide]	6.3 µg/mL
CC(=O)N(OC(=O)Nc1ccccc1)C(=O)Nc1ccccc1 [Example 10, N-((Phenylamino)carbonyl)-N-(((phenylamino)carbonyl)oxy)acetamide]	50 µg/mL
CC(=O)N(OC(=O)Nc1cccc(C)c1)C(=O)Nc1cccc(C)c1 [Example 11, N-(((3-methylphenyl)amino)carbonyl)-N-((((3-methylphenyl)amino)carbonyl)oxy)acetamide]	50 µg/mL
CC(=O)N(OC(=O)Nc1ccc(C)cc1)C(=O)Nc1ccc(C)cc1 [Example 12, N-(((4-Methylphenyl)amino)carbonyl)-N-((((4-methylphenyl)amino)carbonyl)oxy)acetamide]	12.5 µg/mL
CCCCNC(=O)ON(C(C)=O)C(=O)NCCCC [Example 13, N-((Butylamino)carbonyl)-N-(((butylamino)carbonyl)oxy)acetamide]	3.1 µg/mL
CC(C)NC(=O)ON(C(=O)NC(C)C)C(=O)c1ccccc1 [Example 14, N-(((1-Methylethyl)amino)carbonyl)-N-((((1-methylethyl)amino)carbonyl)oxy)benzamide]	0.8 µg/mL
CNC(=O)ON(C(=O)NC)C(=O)c1ccccc1 [Example 15, N-((Methylamino)carbonyl)-N-(((methylamino)-carbonyl)oxy)benzamide]	3.1 µg/mL
CCNC(=O)ON(C(=O)NCC)C(=O)c1ccccc1 [Example 16, N-((Ethylamino)carbonyl)-N-(((ethylamino)-carbonyl)oxy)benzamide]	12.5 µg/mL
CCCNC(=O)ON(C(=O)NCCC)C(=O)c1ccccc1 [Example 17, N-((Propylamino)carbonyl)-N-(((propylamino)-carbonyl)oxy)benzamide]	12.5 µg/mL
CCCCNC(=O)ON(C(=O)NCCCC)C(=O)c1ccccc1 [Example 18, N-((Butylamino)carbonyl)-N-(((butylamino)-carbonyl)oxy)benzamide]	0.8 µg/mL
CC(C)(C)NC(=O)ON(C(=O)NC(C)(C)C)C(=O)c1ccccc1 [Example 19, N-(((1,1-Dimethylethyl)amino)carbonyl)-N-((((1,1-dimethylethyl)amino)carbonyl)oxy)benzamide]	50 µg/mL
O=C(Nc1ccccc1)ON(C(=O)Nc1ccccc1)C(=O)c1ccccc1 [Example 20, N-((Phenylamino)carbonyl)-N-(((phenyl-amino)carbonyl)oxy)benzamide]	50 µg/mL
CCCNC(=O)ON(C(=O)NCCC)C(=O)C1CC1 [Example 22, N-((Propylamino)carbonyl)-N-(((propyl-amino)carbonyl)oxy)cyclopropanecarboxamide]	3.1 µg/mL
CNC(=O)ON(C(=O)NC)C(=O)C1CC1 [Example 23, N-((Methylamino)carbonyl)-N-(((methylamino)carbonyl)oxy)cyclopropanecarboxamide]	12.5 µg/mL
CCNC(=O)ON(C(=O)NCC)C(=O)C1CC1 [Example 24, N-((Ethylamino)carbonyl)-N-(((ethylamino)carbonyl)oxy)cyclopropanecarboxamide]	3.1 µg/mL
CC(C)NC(=O)ON(C(=O)NC(C)C)C(=O)C1CC1 [Example 25, N-(((1-Methylethyl)amino)carbonyl)-N-((((1-methylethyl)amino)carbonyl)oxy)cyclopropanecarboxamide]	3.1 µg/mL
CCCCNC(=O)ON(C(=O)NCCCC)C(=O)C1CC1 [Example 26, N-((Butylamino)carbonyl)-N-(((butylamino)carbonyl)oxy)cyclopropanecarboxamide]	12.5 µg/mL
CC(C)(C)NC(=O)ON(C(=O)NC(C)(C)C)C(=O)C1CC1 [Example 27, N-(((1,1-Dimethylethyl)amino)carbonyl)-N-((((1,1-dimethylethyl)amino)carbonyl)oxy)cyclopropanecarboxamide]	50 µg/mL
O=C(Nc1ccccc1)ON(C(=O)Nc1ccccc1)C(=O)C1CC1 [Example 28, N-((Phenylamino)carbonyl)-N-(((phenylamino)carbonyl)oxy)cyclopropanecarboxamide]	50 µg/mL
O=C(NC1CCCCC1)ON(C(=O)NC1CCCCC1)C(=O)C1CC1 [Example 29, N-((Cyclohexylamino)carbonyl)-N-(((cyclohexylamino)carbonyl)oxy)cyclopropanecarboxamide]	12.5 µg/mL
CNC(=O)ON(C(=O)NC)S(C)(=O)=O [Example 30, N-((Methylamino)carbonyl)-N-(((methyl-amino)carbonyl)oxy)methanesulfamide]	3.1 µg/mL
CCNC(=O)ON(C(=O)NCC)S(C)(=O)=O [Example 31, N-((Ethylamino)carbonyl)-N-(((ethylamino)-carbonyl)oxy)-methanesulfamide]	3.1 µg/mL
